Here are results for 18 compounds from US20040037843A1, “Inducing cellular immune responses to prostate cancer antigens using peptide and nucleic acid compositions” (priority 2003, published 2004).

What all share (assay): HLA class I binding assay, purified HLA, inhibition of 125I-labelled probe peptide
One assay concerns the target HLA-A*0206 (Homo sapiens, UniProt P04439, D140Y/D185E/D98H/E176V/E277Q/F33Y/G131W/G231S/I119V/I121R/I166T/I218V/L300P/L318F/N151K/N90K/P208A/P217A/Q86G/Q94H/R138H/R169H/T345S). Conditions: A*[…], A2 supermotif cross-reactive binding data.
Another assay addresses HLA-A*0202 (Homo sapiens, UniProt P04439, D140Y/D185E/D98H/E176V/E277Q/G131W/G231S/I119L/I121R/I166T/I218V/L180W/L300P/L318F/N151K/N90K/P208A/P217A/Q67R/Q86G/Q94H/R138H/R169H/T345S). The settings on record: A2 supermotif cross-reactive binding data.
The next assay addresses HLA-A*0203 (Homo sapiens, UniProt P04439, A173T/D140Y/D185E/D98H/E277Q/G131W/G231S/I119V/I121R/I166T/I218V/L180W/L300P/L318F/N151K/N90K/P208A/P217A/Q86G/Q94H/R138H/R169H/T345S). Conditions: A*[…], A2 supermotif cross-reactive binding data.
The target of another assay is HLA-A*0201 (Homo sapiens, UniProt P04439, D140Y/D185E/D98H/E176V/E277Q/G131W/G231S/I119V/I121R/I166T/I218V/L300P/L318F/N151K/N90K/P208A/P217A/Q86G/Q94H/R138H/R169H/T345S). The settings on record: A*[…], A2 supermotif cross-reactive binding data.
Another assay has as its target HLA-A*6802 (Homo sapiens, UniProt P04439, A269V/D140Y/D185E/E176V/E277Q/E87N/F33Y/G231S/I121R/I166T/I218V/L180W/L300P/L318F/N151K/P208A/P217A/Q86R/R138H/R169H/S129P/T345S/V36M). The settings on record: A2 supermotif cross-reactive binding data; read-out: A*6802 nM.

As for `CC(C)C[C@H](NC(=O)[C@H](CO)NC(=O)[C@H](CC(C)C)NC(=O)[C@H](CO)NC(=O)[C@H](C)NC(=O)[C@H](C)NC(=O)[C@H](CCCNC(=N)N)NC(=O)[C@H](C)NC(=O)[C@H](CC(C)C)NC(=O)[C@@H](N)CC(C)C)C(=O)O` [Peptide 20.0203], the IC50 at HLA-A*0206 is 9250 nM; at HLA-A*0202, 5.2 nM; at HLA-A*0203, 63 nM; on HLA-A*0201, 500 nM.
As to `CC[C@H](C)[C@H](NC(=O)[C@H](Cc1c[nH]c2ccccc12)NC(=O)[C@@H](NC(=O)[C@@H](NC(=O)[C@H](CO)NC(=O)[C@H](CC(C)C)NC(=O)[C@@H](N)[C@@H](C)O)C(C)C)[C@@H](C)O)C(=O)NCC(=O)N[C@H](C(=O)O)C(C)C` [Peptide 60.0217], the IC50 on HLA-A*6802 came out at 229 nM; at HLA-A*0206, 712 nM; on HLA-A*0202 it was 4.9 nM; on HLA-A*0203, 40 nM; on HLA-A*0201, 26 nM.
For `CSCC[C@H](NC(=O)[C@H](Cc1ccccc1)NC(=O)[C@H](CCCCN)NC(=O)[C@@H](NC(=O)[C@@H](NC(=O)[C@@H](N)CCCCN)C(C)C)[C@@H](C)O)C(=O)N[C@@H](CC(C)C)C(=O)N[C@@H](CS)C(=O)N[C@H](C(=O)O)C(C)C` [Peptide 60.0220], in that order: over 10000 nM, 128 nM, 518 nM, 53 nM and 69 nM.
As for `CC(C)C[C@H](NC(=O)[C@H](CO)NC(=O)[C@H](C)NC(=O)[C@H](C)NC(=O)[C@H](CCCNC(=N)N)NC(=O)[C@H](C)NC(=O)[C@H](CC(C)C)NC(=O)[C@@H](N)CC(C)C)C(=O)N[C@@H](CO)C(=O)N[C@H](C(=O)O)C(C)C` [Peptide 63.0031], the IC50 at HLA-A*0206 was 378 nM; on HLA-A*0202, 10 nM; on HLA-A*0203 it was 21 nM; on HLA-A*0201, 109 nM.
On to `CC(C)C[C@H](NC(=O)[C@H](CC(C)C)NC(=O)[C@@H](N)CO)C(=O)N[C@@H](C)C(=O)N[C@@H](CCCCN)C(=O)N[C@@H](CCC(=O)O)C(=O)N[C@@H](CC(C)C)C(=O)N[C@@H](CCCCN)C(=O)N[C@@H](Cc1ccccc1)C(=O)N[C@H](C(=O)O)C(C)C` [Peptide 63.0033], for which the IC50 at HLA-A*6802 stood at 6670 nM; on HLA-A*0202, 5.7 nM; on HLA-A*0203, 3.8 nM; on HLA-A*0201, 64 nM.
Consider `CC[C@H](C)[C@H](NC(=O)[C@H](CO)NC(=O)[C@@H](NC(=O)CN)C(C)C)C(=O)N[C@@H](Cc1c[nH]c2ccccc12)C(=O)N[C@@H](CC(N)=O)C(=O)N1CCC[C@H]1C(=O)N[C@H](C(=O)N[C@@H](CC(C)C)C(=O)N[C@H](C(=O)O)C(C)C)[C@@H](C)CC` [Peptide 63.0041], for which the IC50 was found to be 2290 nM at HLA-A*6802, 451 nM on HLA-A*0206, 94 nM at HLA-A*0202 and 250 nM on HLA-A*0201.
On to `CC[C@H](C)[C@H](NC(=O)[C@@H]1CCCN1C(=O)[C@H](CCC(N)=O)NC(=O)[C@H](Cc1c[nH]c2ccccc12)NC(=O)[C@H](CC(C)C)NC(=O)[C@H](CC(C)C)NC(=O)[C@H](CC(C)C)NC(=O)[C@@H]1CCCN1)C(=O)N1CCC[C@H]1C(=O)N[C@H](C(=O)O)C(C)C` [Peptide 63.0042], for which the IC50 turned out to be 336 nM on HLA-A*0206, 47 nM on HLA-A*0202, 19 nM on HLA-A*0203 and 238 nM at HLA-A*0201.
As for `CC(C)C[C@H](NC(=O)[C@H](CCC(=O)O)NC(=O)[C@H](CCCNC(=N)N)NC(=O)[C@H](CC(C)C)NC(=O)[C@@H](N)CCCCN)C(=O)N[C@@H](CO)C(=O)N[C@@H](CCC(=O)O)C(=O)N[C@@H](CC(C)C)C(=O)N[C@@H](CO)C(=O)N[C@H](C(=O)O)C(C)C` [Peptide 63.0048], the IC50 at HLA-A*6802 worked out at 1820 nM; at HLA-A*0202 it was 9.1 nM; on HLA-A*0203, 7.1 nM; on HLA-A*0201, 263 nM.
As to `CC(C)C[C@H](NC(=O)[C@H](CO)NC(=O)[C@H](CC(C)C)NC(=O)[C@H](CO)NC(=O)[C@H](C)NC(=O)[C@H](C)NC(=O)[C@H](CCCNC(=N)N)NC(=O)[C@H](C)NC(=O)[C@H](CC(C)C)NC(=O)[C@H](CC(C)C)NC(=O)[C@@H](N)CC(C)C)C(=O)O` [Peptide 63.0136], the IC50 at HLA-A*0206 came out at 80 nM; at HLA-A*0202, 3.1 nM; on HLA-A*0203, 5.3 nM; at HLA-A*0201, 8.1 nM.
Regarding `CC(C)C[C@H](NC(=O)[C@H](Cc1c[nH]c2ccccc12)NC(=O)[C@H](Cc1ccccc1)NC(=O)[C@H](Cc1ccccc1)NC(=O)[C@H](CC(C)C)NC(=O)[C@H](CC(C)C)NC(=O)[C@@H](N)Cc1ccccc1)C(=O)N[C@@H](CC(=O)O)C(=O)N[C@@H](CCCNC(=N)N)C(=O)N[C@@H](CO)C(=O)N[C@H](C(=O)O)C(C)C` [Peptide 63.0138], the IC50 on HLA-A*6802 stood at 364 nM; on HLA-A*0202, 17 nM; on HLA-A*0203, 2.8 nM; on HLA-A*0201 it was 14 nM.
Consider `CC(C)C[C@H](NC(=O)[C@@H](NC(=O)[C@@H](NC(=O)[C@H](Cc1ccccc1)NC(=O)[C@H](CCCCN)NC(=O)[C@H](CC(C)C)NC(=O)[C@H](CCC(=O)O)NC(=O)[C@H](CCCCN)NC(=O)[C@H](C)NC(=O)[C@H](CC(C)C)NC(=O)[C@@H](N)C(C)C)C(C)C)[C@@H](C)O)C(=O)O` [Peptide 63.0142], for which the IC50 at HLA-A*6802 is over 10000 nM; on HLA-A*0202 it was 8.1 nM; on HLA-A*0203 it was 21 nM; on HLA-A*0201 it was 6.9 nM.
For the compound `CC(C)C[C@H](NC(=O)[C@H](Cc1ccccc1)NC(=O)[C@@H](NC(=O)[C@@H](N)C(C)C)C(C)C)C(=O)N[C@H](C(=O)N[C@@H](CC(C)C)C(=O)N[C@@H](CO)C(=O)N[C@H](C(=O)N[C@H](C(=O)N[C@@H](Cc1c[nH]c2ccccc12)C(=O)N[C@H](C(=O)O)C(C)C)[C@@H](C)O)C(C)C)[C@@H](C)O` [Peptide 63.0185], the IC50 on HLA-A*6802 is over 10000 nM; at HLA-A*0206 it was 336 nM; on HLA-A*0202, 88 nM; on HLA-A*0203 it was 71 nM; on HLA-A*0201 it was 89 nM.
For `CC[C@H](C)[C@H](NC(=O)[C@H](Cc1ccccc1)NC(=O)[C@H](C)NC(=O)[C@H](CCCNC(=N)N)NC(=O)[C@H](CCC(=O)O)NC(=O)[C@H](CC(C)C)NC(=O)[C@H](Cc1ccccc1)NC(=O)[C@H](CCSC)NC(=O)[C@H](CC(C)C)NC(=O)[C@@H](N)CCC(N)=O)C(=O)O` [Peptide 1126.16], in that order: 30 nM, over 10000 nM, 36 nM, 91 nM and 98 nM.
For `CC(C)C[C@H](NC(=O)[C@H](CC(=O)O)NC(=O)CNC(=O)[C@H](CCC(=O)O)NC(=O)[C@@H]1CCCN1C(=O)[C@H](CC(C)C)NC(=O)CN)C(=O)N[C@H](C(=O)N[C@@H](Cc1ccc(O)cc1)C(=O)N[C@H](C(=O)O)C(C)C)C(C)C` [Peptide 1389.22], the IC50 on HLA-A*6802 came to 964 nM; on HLA-A*0206, 112 nM; at HLA-A*0202 it was 2 nM; at HLA-A*0201 it was 42 nM.
As for `CC[C@H](C)[C@H](N)C(=O)N[C@@H](CC(C)C)C(=O)N[C@@H](CC(C)C)C(=O)N[C@@H](CO)C(=O)N[C@H](C(=O)NCC(=O)N[C@@H](CS)C(=O)N[C@H](C(=O)NCC(=O)N[C@@H](C)C(=O)N[C@H](C(=O)O)C(C)C)[C@@H](C)O)C(C)C` [Peptide 1418.57], the IC50 on HLA-A*6802 was over 10000 nM; on HLA-A*0202, 33 nM; at HLA-A*0203, 36 nM; on HLA-A*0201, 36 nM.
Consider `CC[C@H](C)[C@H](NC(=O)[C@H](Cc1c[nH]c2ccccc12)NC(=O)[C@@H](NC(=O)[C@@H](NC(=O)[C@H](CO)NC(=O)[C@H](CC(C)C)NC(=O)[C@@H](NC(=O)[C@H](CC(C)C)NC(=O)[C@H](Cc1ccccc1)NC(=O)[C@@H](NC(=O)[C@@H](N)C(C)C)C(C)C)[C@@H](C)O)C(C)C)[C@@H](C)O)C(=O)O` [Peptide 1419.25], for which the IC50 is over 10000 nM at HLA-A*6802, 2850 nM on HLA-A*0206, 159 nM at HLA-A*0202 and 63 nM at HLA-A*0203.
On the same counts, the results for `CC(C)C[C@H](NC(=O)[C@@H](N)Cc1ccccc1)C(=O)N[C@@H](CC(N)=O)C(=O)N[C@@H](CCC(=O)O)C(=O)N[C@@H](CO)C(=O)N[C@@H](Cc1ccc(O)cc1)C(=O)N[C@@H](CCCCN)C(=O)N[C@@H](Cc1c[nH]cn1)C(=O)N[C@@H](CCC(=O)O)C(=O)N[C@@H](CCC(N)=O)C(=O)N[C@H](C(=O)O)C(C)C` [Peptide 1419.55] are 6150 nM, 381 nM, 1.4 nM and 5.6 nM.
For H-LLSNDMCARV-OH [Peptide 1418.53], the IC50 is 1700 nM on HLA-A*6802, 10 nM on HLA-A*0206, 0.7 nM on HLA-A*0202 and 5.3 nM on HLA-A*0201.
